In EP0230023B1, “Pharmaceutical compositions for the enhancement of wound healing” (MARION MERRELL DOW INC., priority 1985, dated 1987):

How the values were obtained:
granulation tissue = test: Subcutaneous Ivalon sponge implantation, histological analysis of granulation tissue formation; format: in vivo, Sprague-Dawley rats; details: for Sponge: score on the 0-4 scale, tested in a similar manner to collagen/sucrose octasulfate, potassium salts
Experimental: By means of subcutaneous implantation of Ivalon sponges the phase of granulation tissue formation in the repair process can be evaluated. Following a vigorous cleanup procedure the sponge material evokes only minimal inflammatory response. Sterile sponges prepared as set forth in Example 12 were injected with a 50 µl suspension of collagen/sucrose octasulfate suspension prepared as in Example 12. […] The sponges were surgically implanted into 350-500 g, male Sprague-Dawley rats. Before the implantation procedure three rats were anesthetized and their dorsal surfaces shaved and wiped with Predodyne (West Chemical Products, Lynbrook, N.Y.). Six 6 mm incisions were cut in groups of two (one on each side of the vertebral column rostrally, centrally and caudally), spaced equi-distant from each other between the pectoral and pelvic girdles on the dorsal surface. At each incision a pocket was made between the panniculus carnosus and the dermis and two sponges inserted into it, one rostrally and the other caudally; a total of 12 sponges were thus implanted in each animal. The position of each test preparation was alternated between the rostral, central and caudal positions to control the variation due to anatomical location. The incisions were closed with 11-mm Michel wound clips (Propper, Long Island City, N.Y.). Seven days following implantation the animals were sacrificed and the sponges surgically removed with their adhered connective tissue capsules. Controls, sponges injected with either PBS or collagen only were treated in a similar manner. In all, approximately 120 sponges per group were used in the study and randomly selected for biochemical and histologic analysis. The sponges were fixed in formalin and embedded in either plastic or Paraplast following dehydration. Sections were stained with hemotocylin and eosin, trichrome, silver or PAS. […] Mesenchymal cell infiltration was also scored on a predetermined scale from 0-4. […] Although the whole sponge area was used for analysis we noted that the most striking differences between the various treatments were evident in the center of the sponge. Therefore, the histologic appearance of the central zone was selected for presentation.

rabbit corneas = test: Rabbit cornea assay for angiogenesis; format: in vivo; details: grade on scale 0-4+ in rabbit cornea; potassium salts
Experimental: This may offer an explanation for the dense vascular bed that characterized the granulation tissue in the in-vivo experiments. Sucrose octasulate at concentrations of 0.1 to 100 µg/ml was encapsulated in Hydron and implanted in rabbit corneas. The method used was that described in Surgery 96:48-54, 1984. The […] solution (sucrose octasulfate or PBS) was mixed with an equal volume of Hydron and allowed to polymerize under reduced pressure. […] Eyes were evaluated at days 1 through 14 post-implantation for gross inflammation and, as described by Hunt, et al, in Surgery 96:48-54, 1984, for angiogenesis. Corneal neovascularization was graded on a scale of 0-4+ (integers only being assigned). Zero denotes a normal eye with no ingrowth on limbal vessels into the corneal stroma; 1+, up to 1 mm of capillary ingrowth in a localized arc adjacent to the injection site; 2+, […] ingrowth; 3+, 2-3 mm ingrowth; and 4+, 3 mm or greater ingrowth in a wide arc along the limbal edge toward the injection site. […] To ascertain that the observed angiogenesis was not secondary to an inflammatory process some eyes with a positive response were removed and stained with H&E and a nonspecific esterase stain as early as two days after implantation.

fibroblasts = test: Cell migration assay (Boyden chamber); format: cell-based; parameters: Chemokinesis: scale not given here; details: score, Boyden chamber, scale not defined; potassium salts
Experimental: Stimulation of directed movement of fibroblasts was assayed as described by Banda M.J., Knighton D.R., Hunt T.K., Werb A., Isolation of a nonmitogenic angiogenesis factor from wound fluid, Proc. Natl. Acad. Sci. 79:7773-7777, 1982. Briefly, solutions of sucrose octasulfate in PBS in concentrations resulting in final concentrations ranging from 10 -² to 10 -⁷ g/ml diluted to a final volume of 300 µℓ in DMEM supplemented with 10 percent rabbit platelet-poor plasma serum were placed in the bottom of Boyden blind-well chambers. Polylysine-coated, 5 µ -pore diameter, polycarbonate filters (Nucleopore) were placed over the test solution and 1.75-3.0 x 10⁶ fibroblasts suspended in DMEM added to the top compartment. The chambers were incubated for two and a half hours at 37 °C,
At the end of incubation of the top filter was fixed, stained and evaluated by counting the number of cells that had migrated to the bottom side of the filter. For each experiment five random fields per filter and at least 15 filters per each concentration of sucrose octasulfate were conducted. […]

| Molecule | histologic response in sponge (granulation tissue; similar tests with sucralfate) | Sponge (granulation tissue) | Angiogenesis (rabbit corneas) | Chemokinesis (fibroblasts) |
| --- | --- | --- | --- | --- |
| sucralfate [reference compound] | strong inflammatory response with no neovascularization or fibroblast migration | – | – | – |
| O=S(=O)(O)OC[C@H]1O[C@@H](OS(=O)(=O)O)[C@H](OS(=O)(=O)O)[C@@H](OS(=O)(=O)O)[C@@H]1O[C@H]1O[C@H](COS(=O)(=O)O)[C@@H](OS(=O)(=O)O)[C@H](OS(=O)(=O)O)[C@H]1OS(=O)(=O)O [Maltose Octasulfate, potassium maltose octasulfate] | – | 3.0 | 3.0 | 3.0 |
| O=C[C@H](OS(=O)(=O)[O-])[C@@H](OS(=O)(=O)[O-])[C@H](OS(=O)(=O)[O-])[C@@H](COS(=O)(=O)[O-])OS(=O)(=O)[O-].[K+].[K+].[K+].[K+].[K+] [Glucose Pentasulfate, potassium glucose pentasulfate] | – | 2.5 | 2.0 | 3.0 |
| O=C[C@@H](OS(=O)(=O)[O-])[C@@H](OS(=O)(=O)[O-])[C@H](OS(=O)(=O)[O-])[C@@H](COS(=O)(=O)[O-])OS(=O)(=O)[O-].[K+].[K+].[K+].[K+].[K+] [Mannose Pentasulfate, potassium mannose pentasulfate] | – | 3.0 | 3.0 | 4.0 |
| potassium sucrose trisulfate | – | 2.5 | 2.0 | 3.0 |
| O=S(=O)([O-])OC[C@H]1O[C@@H](O[C@H]2[C@H](OS(=O)(=O)[O-])[C@@H](OS(=O)(=O)[O-])[C@H](OS(=O)(=O)[O-])O[C@@H]2COS(=O)(=O)[O-])[C@H](OS(=O)(=O)[O-])[C@@H](OS(=O)(=O)[O-])[C@H]1OS(=O)(=O)[O-].[K+].[K+].[K+].[K+].[K+].[K+].[K+].[K+] [Beta-Lactose Octasulfate, potassium β -lactose octasulfate] | – | 3.0 | 3.0 | 3.0 |
| O=S(=O)([O-])OC[C@H]1O[C@H](O[C@H]2O[C@H](COS(=O)(=O)[O-])[C@@H](OS(=O)(=O)[O-])[C@H](OS(=O)(=O)[O-])[C@H]2OS(=O)(=O)[O-])[C@H](OS(=O)(=O)[O-])[C@@H](OS(=O)(=O)[O-])[C@@H]1OS(=O)(=O)[O-].[K+].[K+].[K+].[K+].[K+].[K+].[K+].[K+] [Trehalose Octasulfate, potassium trehalose octasulfate] | – | 3.0 | 3.0 | 2.0 |
| potassium melezitose persulfate [Melezitose Undecasulfate] | – | 1 | 1 | 1 |
| O=C[C@H](O)[C@@H](O)[C@H](O)[C@H](O)COS(=O)(=O)[O-].[K+] [Glucose-6-Sulfate, potassium D-glucose-6-sulfate, reference compound] | – | 1 | 1 | 1 |
| potassium stachyose persulfate [Stachyose Tetradecasulfate] | – | 2.5 | 2.5 | 2.0 |
